Our source for the IC50 values is ChEMBL document CHEMBL2417533, “Apratoxin H and apratoxin A sulfoxide from the Red Sea cyanobacterium Moorea producens” (J Nat Prod, 2013).

The assay relates to NCI-H460. Kind of assay: Cytotoxicity against human NCI-H460 cells after 48 hrs by MTT assay. It is filed as functional, cell-based. The following applies: NCI-H460, 48 h.
On to `CC[C@H](C)[C@H]1C(=O)N2CCC[C@H]2C(=O)O[C@H](C(C)(C)C)C[C@@H](C)C[C@H](O)[C@H](C)C2=N[C@@H](/C=C(\C)C(=O)N[C@@H](Cc3ccc(OC)cc3)C(=O)N(C)[C@@H](C)C(=O)N1C)C[S+]2[O-]` (stereo partly drawn), for which the IC50 – broadly, the concentration needed to halve the response being measured – stood at 89.9 nM. As for `CC[C@H](C)[C@H]1C(=O)N2CCC[C@H]2C(=O)O[C@H](C(C)(C)C)C[C@@H](C)C[C@H](O)[C@H](C)C2=N[C@@H](/C=C(\C)C(=O)N[C@@H](Cc3ccc(OC)cc3)C(=O)N(C)[C@@H](C)C(=O)N1C)CS2` [APRATOXIN A], half-maximal inhibition (IC50) required 2.5 nM. Molecule `CC[C@H](C)[C@H]1C(=O)N2CCCC[C@H]2C(=O)O[C@H](C(C)(C)C)C[C@@H](C)C[C@H](O)[C@H](C)C2=N[C@@H](/C=C(\C)C(=O)N[C@@H](Cc3ccc(OC)cc3)C(=O)N(C)[C@@H](C)C(=O)N1C)CS2` showed an IC50 of 3.4 nM.
